Reference: patent publication US20230041563A1, “N-(1,3,4-OXADIAZOL-2-YL)ARYLCARBOXAMIDES OR SALTS THEREOF, PREPARATION METHODS, HERBICIDAL COMPOSITIONS AND USES THEREOF” (priority 2018, published 2023)

Assays:
Assay in all cases: Weeding effect in post-emergence stage (greenhouse pot spray)
Type in all cases: in vivo
Digitaria sanguinalis = test system: Digitaria sanguinalis
Excerpt: (§1) The activity level criteria for plant damage (i.e., growth control rate) are as follows:
(§2) The above growth control rates are fresh weight control rates.
(§3) Experiment on weeding effect in post-emergence stage: monocotyledonous and dicotyledonous weed seeds (Descurainia sophia, Capsella bursa-pastoris, Abutilon theophrasti, Galium aparine, Stellaria media, Lithospermum arvense, rorippa indica, Alopecurus aequalis, Beckmannia syzigachne, Sclerochloa dura, Phleum paniculatum, Bromus japonicus, Aegilops tauschii, Phalaris arundinacea, Amaranthus retroflexus, Chenopodiaceae, Commelina communis, Sonchus arvensis, convolvulus arvensis, Cirsium setosum, Solanum nigrum, Acalypha australis, Digitaria sanguinalis, Echinochloa crusgalli, Setaria viridis, Setaria glauca, Leptochloa chinensis, Monochoria vaginalis, Sagittaria trifolia, Scirpus juncoides, Cyperus rotundus, Cyperus iria, Cyperus difformis, Fimbristylis, Portulaca oleracea, Xanthium sibiricum, Pharbitis nil) and major crop seeds (wheat, corn, rice, soybean, cotton, oilseed rape, millet, sorghum, potato, sesame, ricinus) were placed in plastic pots filled with soil, then covered with 0.5-2 cm of soil, allowed to grow in a good greenhouse environment. After 2 weeks of sowing, the test plants were treated in the 2 to 3 leaf stage. The tested compounds of the present invention were respectively dissolved in acetone, then added with Tween 80 and 1.5 liter/ha of emulsifiable concentrate of methyl oleate as synergist, diluted with a certain amount of water to obtain a solution with a certain concentration, and sprayed with a spray tower onto the plants. After the application, the plants were cultured for 3 weeks in the greenhouse, and then the experimental results of the weeding were counted. […]

Echinochloa crusgalli = test system: Echinochloa crusgalli
Excerpt: as §1, §2, §3

Setaria viridis = test system: Setaria viridis
Excerpt: as §1, §2, §3

| SMILES | Digitaria sanguinahs (activity level) (Digitaria sanguinalis; Table 3, dose 7.5 g a.i./ha) | Digitaria sanguinahs (activity level) (Digitaria sanguinalis; Table 3, dose 15 g a.i./ha) | Digitaria sanguinahs (activity level) (Digitaria sanguinalis; Table 3, dose 30 g a.i./ha) | Digitaria sanguinahs (activity level) (Digitaria sanguinalis; Table 3, dose 60 g a.i./ha) | Echinochloa crusgali (activity level) (Echinochloa crusgalli; Table 3, dose 7.5 g a.i./ha) | Echinochloa crusgali (activity level) (Echinochloa crusgalli; Table 3, dose 15 g a.i./ha) | Echinochloa crusgali (activity level) (Echinochloa crusgalli; Table 3, dose 30 g a.i./ha) | Echinochloa crusgali (activity level) (Echinochloa crusgalli; Table 3, dose 60 g a.i./ha) | Setaria viridis (activity level) (Setaria viridis; Table 3, dose 7.5 g a.i./ha) | Setaria viridis (activity level) (Setaria viridis; Table 3, dose 15 g a.i./ha) | Setaria viridis (activity level) (Setaria viridis; Table 3, dose 30 g a.i./ha) | Setaria viridis (activity level) (Setaria viridis; Table 3, dose 60 g a.i./ha) | Digitaria sanguinahs (activity level) (Digitaria sanguinalis; Table 3, dose 500 g a.i./ha) | Echinochloa crusgali (activity level) (Echinochloa crusgalli; Table 3, dose 500 g a.i./ha) | Setaria viridis (activity level) (Setaria viridis; Table 3, dose 500 g a.i./ha) | further results |
| --- | --- | --- | --- | --- | --- | --- | --- | --- | --- | --- | --- | --- | --- | --- | --- | --- |
| Cc1nnc(NC(=O)c2ccc(C(F)(F)F)c([S@+](C)[O-])c2F)o1 [1-2 (R-configuration)] | 0 (Level 0: growth control rate is less than 5%) | 1 (Level 1: growth control rate is greater than or equal to 5% and less than 20%) | 3 (Level 3: growth control rate is greater than or equal to 40% and less than 60%) | 4 (Level 4: growth control rate is greater than or equal to 60% and less than 85%) | 0 (Level 0: growth control rate is less than 5%) | 1 (Level 1: growth control rate is greater than or equal to 5% and less than 20%) | 3 (Level 3: growth control rate is greater than or equal to 40% and less than 60%) | 4 (Level 4: growth control rate is greater than or equal to 60% and less than 85%) | 0 (Level 0: growth control rate is less than 5%) | 2 (Level 2: growth control rate is greater than or equal to 20% and less than 40%) | 3 (Level 3: growth control rate is greater than or equal to 40% and less than 60%) | 3 (Level 3: growth control rate is greater than or equal to 40% and less than 60%) |  |  |  |  |
| Cc1nnc(NC(=O)c2ccc(C(F)(F)F)c([S@@+]([O-])CCOC(F)F)c2F)o1 [1-523 (R-configuration)] |  |  |  |  |  |  |  |  |  |  |  |  | 5 (Level 5: growth control rate is above 85%) | 5 (Level 5: growth control rate is above 85%) | 5 (Level 5: growth control rate is above 85%) |  |
| Cc1nnc(NC(=O)c2ccc(C(F)(F)F)c([S@+]([O-])CCC(F)(F)C(F)(F)F)c2F)o1 [1-412 (R-configuration)] |  |  |  |  |  |  |  |  |  |  |  |  | 5 (Level 5: growth control rate is above 85%) | 5 (Level 5: growth control rate is above 85%) | 5 (Level 5: growth control rate is above 85%) |  |
| Cc1nnc(NC(=O)c2ccc(C(F)(F)F)c([S@@+]([O-])CC(C)O)c2F)o1 (stereo partly drawn) [1-431 (R-configuration)] |  |  |  |  |  |  |  |  |  |  |  |  | 5 (Level 5: growth control rate is above 85%) | 5 (Level 5: growth control rate is above 85%) | 5 (Level 5: growth control rate is above 85%) |  |
| CC[S@+]([O-])c1c(C(F)(F)F)ccc(C(=O)Nc2nnc(C)o2)c1F [1-5 (R-configuration)] | 4 (Level 4: growth control rate is greater than or equal to 60% and less than 85%) | 5 (Level 5: growth control rate is above 85%) | 5 (Level 5: growth control rate is above 85%) | 5 (Level 5: growth control rate is above 85%) | 5 (Level 5: growth control rate is above 85%) | 5 (Level 5: growth control rate is above 85%) | 5 (Level 5: growth control rate is above 85%) | 5 (Level 5: growth control rate is above 85%) | 4 (Level 4: growth control rate is greater than or equal to 60% and less than 85%) | 5 (Level 5: growth control rate is above 85%) | 5 (Level 5: growth control rate is above 85%) | 5 (Level 5: growth control rate is above 85%) |  |  |  | Digitaria sanguinahs (activity level) (Digitaria sanguinalis; Table 3, dose 3.75 g a.i./ha): 3 (Level 3: growth control rate is greater than or equal to 40% and less than 60%); Echinochloa crusgali (activity level) (Echinochloa crusgalli; Table 3, dose 3.75 g a.i./ha): 4 (Level 4: growth control rate is greater than or equal to 60% and less than 85%); Setaria viridis (activity level) (Setaria viridis; Table 3, dose 3.75 g a.i./ha): 3 (Level 3: growth control rate is greater than or equal to 40% and less than 60%) |
| CCC[S@+]([O-])c1c(C(F)(F)F)ccc(C(=O)Nc2nnc(CC)o2)c1F [2-8 (R-configuration)] |  |  |  |  |  |  |  |  |  |  |  |  |  |  |  | Digitaria sanguinahs (activity level) (Digitaria sanguinalis; Table 3, dose 250 g a.i./ha): 5 (Level 5: growth control rate is above 85%); Echinochloa crusgali (activity level) (Echinochloa crusgalli; Table 3, dose 250 g a.i./ha): 5 (Level 5: growth control rate is above 85%); Setaria viridis (activity level) (Setaria viridis; Table 3, dose 250 g a.i./ha): 5 (Level 5: growth control rate is above 85%) |
